The results in this text go back to patent US6346529B1, “Antiviral therapy using thiazine dyes” (Oklahoma Medical Research Foundation, priority 1988, dated 2002).

Where two headings read alike, the source gives them in different places. A value given as a limit tells only on which side of the number the result lay.

A word on the EC50: it is the midpoint of the concentration-response curve.

What all share (format): cell-based
One assay concerns HSV-2 (G strain). In words: HSV plaque reduction assay in Vero cells, HSV-2. As to conditions: read-out: Antiviral Effect: EC50 HSV-2. On the procedure: (§1) HSV Preparation: Confluent HEp-2 cells, in a roller bottle (Falcon, 850 cm^2), were infected at an input multiplicity of 0.01 PFU per cell (to minimize production of defective viruses). During the two-hour absorption period, the cells were exposed to the virus inoculum diluted in absorption buffer (10 ml PBS containing 1% newborn calf serum and 0.1% glucose). The virus inoculum was then removed and replaced with Hanks' Minimum Essential Medium (MEM) containing 2% inactivated newborn calf serum, penicillin (100 U/ml) and streptomycin (100 μg/ml) (P and S), sodium bicarbonate (2 g/L) and HEPES (25 mM) (maintenance medium). The infected cells were incubated at 37° C. for 3 to 4 days, until the cells could be easily shaken from the plastic surface of the culture bottles. The cells were then collected by centrifugation, suspended in a small volume of spent culture fluid (5 ml per 2×10^8 cells) and sonicated 3 times for one min on ice. The disrupted cells were centrifuged (2,000 g for 15 min at 4° C. and the supernatant was diluted with an equal volume of sterile skimmed milk (as stabilizer) and aliquots were frozen at −70° C.
(§2) HSV Plaque Reduction Assay: Near confluent Vero (African Green Monkey) cells in 6-well plates were infected with 100 μl virus diluted in absorption buffer to give 100-200 plaques per well. The plates were then incubated at 37° C. for 1 hour with intermittent rocking every 15 minutes. The inoculum was aspirated and the compounds at different concentrations (dissolved in maintenance medium) were added to replicate wells. For these assays, 0.1% pooled human gamma globulin was included in the media. The plates were placed in 5% CO2-95% air incubator and the plaques were allowed to develop for 48 h prior to fixation (buffered 10% Formalin acetate), staining (0.5% crystal violet in 20% EtOH/H2O) and enumeration. The degree of inhibition (percent plaques of control) was calculated by counting the mean plaque counts for the different drug dilutions. […] For routine antiviral drug screening, we used the F strain of HSV-1 and the G strain of HSV-2 (Ejercito, et al., “Characterization of Herpes Simplex virus Strains Differing in Their Effect on Social Behavior of Infected Cells,” J. Gen. Virol. 2, 357-364 (1968)). […] Acyclovir (ACV) was used as a positive control for the studies on HSV.
(§3) Median-Effect Method: EC50 and IC50 values were obtained by analysis of the data using the median-effect equation (Chou, T., et al., “Quantitative Analysis of Dose-Effect Relationships: The Combined Effects of Multiple Drugs or Enzyme Inhibitors,” Adv. Enz. Regul. 22, 27-55 (1984).

The next assay concerns HIV-1 (strain LAV-1). Nature of the assay: Inhibition of HIV-1 replication in human PBMC (supernatant RT activity). The settings on record: Human immunodeficiency virus 1, PBMC. On the procedure: Cells: Human peripheral blood mononuclear cells (PBMC) from healthy HIV-1 seronegative and hepatitis B virus seronegative donors were isolated by Ficoll-Hypaque discontinuous gradient centrifugation at 1,000×g for 30 minutes, washed twice in phosphate-buffered saline (pH 7.2; PBS), and pelleted at 300×g for 10 minutes. Before infection, the cells were stimulated by phytohemagglutinin (PHA) at a concentration of 16.7 μg/ml, and 4 mM sodium bicarbonate buffer.
Retrovirus: HIV-1 (strain LAV-1) was obtained from Dr. P. Feorino (Centers for Disease Control, Atlanta, Ga.). The virus was propagated in human PBMC using RPMI 1640 medium, as described previously by McDougal, et al., (“Immunoassay for the detection and quantitation of infectious human retrovirus, lymphadenopathy-associated virus (LAV),” J. Immun. Meth. 76, 171-183, 1985) without PBA or fungizone and supplemented with 7% (v/v) interleukin-2 (Advanced Biotechnologies, Silver Spring, Md.), 7 μg/ml DEAE-dextran (Pharmacia, Uppsala, Sweden), and 370 U/ml anti-human leukocyte (alpha) interferon (ICN, Lisle, Ill.). Virus obtained from cell-free culture supernatant was titrated and stored in aliquots at −70° C. until use.
Inhibition of Virus Replication in Human PBMC: Uninfected PHA-stimulated human PBMC were uniformly distributed among 25 cm^2 flasks to give a 5 ml suspension containing about 2×10^6 cells/ml. Suitable dilutions of virus were added to infect the cultures. The mean reverse transcriptase (RT) activity of the inocula was 50,000 dpm/ml corresponding to about 100 TCID50, as determined by Groopman, et al., (1987), “Characterization of Serum Neutralization Response to the Human Immunodeficiency Virus (HIV),” AIDS Res. Human Retro. 3, 71-85. The drugs, at twice their final concentrations in 5 ml of RPMI 1640 medium (supplemented as described above), were added to the cultures. Uninfected and untreated PBMC at equivalent cell densities were grown in parallel as controls. The cultures were maintained in a humidified 5% CO2-95% air incubator at 37° C. for six days after infection at which point all cultures were sampled for supernatant RT activity.
RT Activity Assay: A […] aliquot of supernatant from each culture was clarified of cells at 300×g for 10 minutes. […]
The RT assay was performed in 96-well microtiter plates, as described by Spira, et al. (1987), “Micromethod for Assaying the Reverse Transcriptase of LAV-HTLV-III/Lymphadenopathy-Associated Virus,” J. Clin. Microbiol. […] Four ml of scintillation fluid (Econofluor, NEN Research Products, Boston, Mass.) were added and the amount of radioactivity in each sample was determined using a Packard Tri-Carb liquid scintillation analyzer (model 2,000CA). […]

For a further assay, the system named is HSV-1 (F strain). In words: HSV plaque reduction assay in Vero cells, HSV-1. The settings on record: read-out: Antiviral Effect: EC50 HSV-1. On the procedure:
as §1, §2, §3
In general terms: In a plaque reduction assay, fewer plaques than in the control indicate reduced infectivity or spread.

Regarding `Nc1nc2c(ncn2COCCO)c(=O)[nH]1` [ACV, Acyclovir], the concentration for a half-maximal effect (EC50) in the assay on HSV-2 (G strain) (Human alphaherpesvirus 2, Vero, dark) was 160 nM; in the assay with HSV-2 (G strain) (Human alphaherpesvirus 2, Vero, light), 510 nM; in the assay on HIV-1 (strain LAV-1) (light, read-out: Antiviral Effect: EC50 HIV-1) it was more than 100000 nM; with HSV-1 (F strain) (Human alphaherpesvirus 1, Vero, dark), 13 nM; in the assay on HSV-1 (F strain) (Human alphaherpesvirus 1, Vero, light), 22 nM.
As for `CN(C)c1ccc2nc3ccc(N(C)C)cc3[s+]c2c1.[Cl-]` [MB, 3,7-Bis(dimethylamino)phenothiazin-5-ium chloride], the concentration giving a half-maximal response (EC50) in the assay with HSV-2 (G strain) (Human alphaherpesvirus 2, Vero) is not below 10000 nM; in the assay on HSV-2 (G strain) (dark), not below 10000 nM; with HIV-1 (strain LAV-1) (read-out: Antiviral Effect: EC50 HIV-1, dark), 140 nM; with HIV-1 (strain LAV-1) (read-out: Antiviral Effect: EC50 HIV-1, light), 28 nM; in the assay with HSV-1 (F strain) (Human alphaherpesvirus 1, Vero) it was not below 10000 nM; in the assay with HSV-1 (F strain) (dark), not below 10000 nM.
